Results reported in patent US4217305A, “Phenylethanolamine derivatives” (Yamanouchi Pharmaceutical Co., Ltd., priority 1977, dated 1980).
Structures can show the parent of a compound that is named as a salt. Where two headings read alike, the source gives them in different places.

What was measured:
Assay type in all cases: in vivo
α-Adrenergic = α-Adrenergic blocking action: antagonism of hypertensive response to phenylephrine in anesthetized rats; settings: for α-blocking (Rat) ED50: i.v.; for ED50: Rattus norvegicus, iv, read-out: α-blocking (Rat) ED50
Procedure: A. α-Adrenergic blocking action: (a) The blood pressure was measured in rats anesthetized with urethane and treated with pentolinium.

β-Adrenergic = β-Adrenergic blocking action: antagonism of isoproterenol induced tachycardia in rats; settings: reserpine pretreated, pentobarbital anesthetized rats, isoproterenol 0.1 μg/Kg iv.; for β-blocking (Rat) ED50: i.v.; for ED50: Rattus norvegicus, iv
Procedure: Bilateral vagotomy was performed at the neck. The effects of the test samples to antagonize the isoproterenol (0.1 μg/Kg iv.) induced tachycardia were measured and the results were shown in Table I.

[1] = system: spontaneously hypertensive rats; assay: Antihypertensive effects in spontaneously hypertensive rats, oral administration; settings: at 10 mg/Kg p.o., mean ± S.E. of 5 to 10 animals, measured indirectly from the tail
Procedure: B. Antihypertensive effects in spontaneously hypertensive rats: Oral administration: The systolic blood pressure was measured indirectly from the tail using a programmed electro-sphygmanometer (Nacro Bio-Systems Inc., PE-300) on spontaneously hypertensive rats having a systolic blood pressure of higher than 150 mmHg, the result being shown in Table II.

[2] = urethane anesthetized, pentolinium treated rats, phenylephrine 10 μg/Kg i.v., hydrochloride
[3] = urethane anesthetized, pentolinium treated rats, phenylephrine 10 μg/Kg i.v.

| Structure (SMILES) | antihypertensive effect: change in systolic blood pressure [1] | ED50 (α-Adrenergic; [3]) | ED50 (β-Adrenergic) | other results |
| --- | --- | --- | --- | --- |
| COc1ccccc1CCC(C)NCC(O)c1ccc(C)c(S(N)(=O)=O)c1.Cl (stereo not drawn) [36(i1 + i2), 5-{1-Hydroxy-2-[3-(2-methoxyphenyl)-1-methylpropylamino]-ethyl}-2-methylbenzenesulfonamide hydrochloride] | – | – | – | α-blocking (Rat) ED50 (α-Adrenergic; [2]): 0.43 mg/kg; β-blocking (Rat) ED50 (β-Adrenergic; hydrochloride): 0.095 mg/kg; antihypertensive effect: change in systolic blood pressure ([1]; hydrochloride, 10 mg/kg): -40 ± 6.6 mmHg |
| COc1ccccc1CCC(C)NCC(O)c1ccc(C)c(S(N)(=O)=O)c1.Cl (stereo not drawn) [36(i1), 5-{1-hydroxy-2-[3-(2-methoxyphenyl)-1-methylpropylamino]ethyl}-2-methylbenzenesulfonamide hydrochloride] | – | – | – | α-blocking (Rat) ED50 (α-Adrenergic; [2]): 1.2 mg/kg; β-blocking (Rat) ED50 (β-Adrenergic; hydrochloride): 0.071 mg/kg; antihypertensive effect: change in systolic blood pressure ([1]; hydrochloride, 10 mg/kg): -18 ± 6.1 mmHg |
| COc1ccccc1CCC(C)NCC(O)c1ccc(C)c(S(N)(=O)=O)c1.Cl (stereo not drawn) [36(i2), 5-{1-hydroxy-2-[3-(2-methoxyphenyl)-1-methylpropylamino]ethyl}-2-methylbenzenesulfonamide hydrochloride] | – | – | – | α-blocking (Rat) ED50 (α-Adrenergic; [2]): 0.093 mg/kg; β-blocking (Rat) ED50 (β-Adrenergic; hydrochloride): 0.41 mg/kg; antihypertensive effect: change in systolic blood pressure ([1]; hydrochloride, 10 mg/kg): -33 ± 5.7 mmHg |
| COc1ccccc1OCC(C)NCC(O)c1ccc(C)c(S(N)(=O)=O)c1 (stereo not drawn) [69(i1 + i2), 5-{1-hydroxy-2-[2-(2-methoxyphenoxy)-1-methylethylamino]ethyl}-2-methylbenzenesulfonamide] | – | – | – | α-blocking (Rat) ED50 (α-Adrenergic; [3]): 0.27 mg/kg; β-blocking (Rat) ED50 (β-Adrenergic): 0.083 mg/kg; antihypertensive effect: change in systolic blood pressure ([1]; 10 mg/kg): -43 ± 5.8 mmHg |
| COc1ccccc1OCC(C)NCC(O)c1ccc(C)c(S(N)(=O)=O)c1 (stereo not drawn) [69(i1), 5-{1-hydroxy-2-[2-(2-methoxyphenoxy)-1-methylethylamino]ethyl}-2-methylbenzenesulfonamide] | – | – | – | α-blocking (Rat) ED50 (α-Adrenergic; [3]): 0.24 mg/kg; β-blocking (Rat) ED50 (β-Adrenergic): 0.057 mg/kg; antihypertensive effect: change in systolic blood pressure ([1]; 10 mg/kg): -28 ± 7.7 mmHg |
| COc1ccccc1OCC(C)NCC(O)c1ccc(C)c(S(N)(=O)=O)c1 (stereo not drawn) [69(i2), 5-{1-hydroxy-2-[2-(2-methoxyphenoxy)-1-methylethylamino]ethyl}-2-methylbenzenesulfonamide] | – | – | – | α-blocking (Rat) ED50 (α-Adrenergic; [3]): 0.054 mg/kg; β-blocking (Rat) ED50 (β-Adrenergic): 0.47 mg/kg; antihypertensive effect: change in systolic blood pressure ([1]; 10 mg/kg): -32 ± 6.7 mmHg |
| CC(NCC(O)c1ccc(O)c(S(N)(=O)=O)c1)C1COc2ccccc2O1 (stereo not drawn) [70(i1'), 2-hydroxy-5-{1-hydroxy-2-[1-(1,4-benzodioxan-2-yl)ethylamino]ethyl}benzenesulfonamide] | -27 ± 6.1 mmHg | – | – | – |
| COc1ccc(C(O)CNC(C)C2COc3ccccc3O2)cc1S(N)(=O)=O (stereo not drawn) [72(i1'), 5-{1-hydroxy-2-[1-(1,4-benzodioxan-2-yl)ethylamino]ethyl}-2-methoxybenzenesulfonamide hydrochloride (i1 ')] | -30 ± 4.3 mmHg | – | – | – |
| COc1ccccc1OCC(C)(C)NCC(O)c1ccc(C)c(S(N)(=O)=O)c1 (stereo not drawn) [Example 9] | -25 ± 4.2 mmHg | 0.89 mg/kg | 0.26 mg/kg | – |
| COc1cc(O)ccc1OCCNCC(O)c1ccc(C)c(S(N)(=O)=O)c1 (stereo not drawn) [Example 13, 5-{1-Hydroxy-2-[2-(4-hydroxy-2-methoxyphenoxy)ethylamino]ethyl}-2-methylbenzenesulfonamide] | – | 0.23 mg/kg | 0.014 mg/kg | – |
| Cc1ccc(C(O)CNCCOc2ccccc2CO)cc1S(N)(=O)=O (stereo not drawn) [Example 15, 5-{1-Hydroxy-2-[2-(2-hydroxymethylphenoxy)ethylamino]-ethyl}-2-methylbenzenesulfonamide] | -11 ± 4.3 mmHg | 0.13 mg/kg | 0.15 mg/kg | – |
| C=CCOc1ccccc1OCCNCC(O)c1ccc(C)c(S(N)(=O)=O)c1.Cl (stereo not drawn) [Example 18, 5-{2-[2-(2-Allyloxyphenoxy)ethylamino]-1-hydroxyethyl}-2-methylbenzenesulfonamide hydrochloride] | -34 ± 5.2 mmHg | – | – | – |
| Cc1ccc(C(O)CNC(C)CCc2ccccc2)cc1S(N)(=O)=O.Cl (stereo not drawn) [Example 24, 5-[1-hydroxy-2-(1-methyl-3-phenylpropylamino)ethyl]-2-methylbenzenesulfonamide hydrochloride] | -27 ± 6.1 mmHg | – | – | – |
| COc1ccc(C(O)CNC(C)CCc2ccccc2)cc1S(N)(=O)=O.Cl (stereo not drawn) [Example 25, 5-[1-Hydroxy-2-(1-methyl-3-phenylpropylamino)ethyl]-2-methoxybenzenesulfonamide hydrochloride] | – | 1.3 mg/kg | 0.035 mg/kg | – |
| Cc1ccc(C(O)CNC(C)C2COc3ccccc3O2)cc1S(N)(=O)=O (stereo not drawn) [Example 28] | -23 ± 4.3 mmHg | 1.1 mg/kg | 0.42 mg/kg | – |
| COc1cc(C(O)CNC(C)CCc2ccccc2)cc(S(N)(=O)=O)c1.Cl (stereo not drawn) [Example 30, 3-[1-Hydroxy-2-(1-methyl-3-phenylpropylamino)ethyl]-5-methoxybenzenesulfonamide hydrochloride] | – | 1.8 mg/kg | 0.052 mg/kg | – |
| COc1ccccc1OCC(C)NCC(O)c1ccc(OC)c(S(N)(=O)=O)c1.Cl (stereo not drawn) [Example 34, 5-{1-Hydroxy-2-[2-(2-methoxyphenoxy)-1-methylethylamino]-ethyl}-2-methoxybenzenesulfonamide hydrochloride] | -20 ± 4.3 mmHg | 0.068 mg/kg | 0.28 mg/kg | – |
| CCOc1ccccc1OCC(C)NCC(O)c1ccc(C)c(S(N)(=O)=O)c1.Cl (stereo not drawn) [Example 39, 5-{1-Hydroxy-2-[2-(2-ethoxyphenoxy)-1-methylethylamino]-ethyl}-2-methylbenzenesulfonamide hydrochloride] | -11 ± 5.5 mmHg | 0.066 mg/kg | 0.27 mg/kg | – |
| Cc1ccc(C(O)CNC(C)COc2ccccc2O)cc1S(N)(=O)=O.Cl (stereo not drawn) [Example 41, 5-{1-Hydroxy-2-[2-(2-hydroxyphenoxy)-1-methylethylamino]-ethyl}-2-methylbenzenesulfonamide hydrochloride] | -30 ± 4.9 mmHg | 0.66 mg/kg | 0.044 mg/kg | – |
| Cc1ccc(C(O)CNCCOc2ccc(O)cc2)cc1S(N)(=O)=O.Cl (stereo not drawn) [Example 45, 5-{1-Hydroxy-2-[2-(4-hydroxyphenoxy)ethylamino]ethyl}-2-methylbenzenesulfonamide hydrochloride] | – | 0.86 mg/kg | 0.013 mg/kg | – |
| COc1cc(C)ccc1OCCNCC(O)c1ccc(C)c(S(N)(=O)=O)c1.Cl (stereo not drawn) [Example 46, 5-{1-Hydroxy-2-[2-(2-methoxy-4-methylphenoxy)ethylamino]-ethyl}-2-methylbenzenesulfonamide hydrochloride] | -20 ± 4.5 mmHg | – | – | – |
| COc1ccccc1OCCNCC(O)c1ccc(OC)c(S(N)(=O)=O)c1.Cl (stereo not drawn) [Example 48, 5-{1-Hydroxy-2-[2-(2-methoxyphenoxy)ethylamino]ethyl}-2-methoxybenzenesulfonamide hydrochloride] | -49 ± 4.9 mmHg | – | – | – |
| COc1cc(CO)ccc1OCCNCC(O)c1ccc(C)c(S(N)(=O)=O)c1 (stereo not drawn) [Example 50] | – | 0.3 mg/kg | 0.049 mg/kg | – |
| CCOc1cc(CO)ccc1OCCNCC(O)c1ccc(C)c(S(N)(=O)=O)c1 (stereo not drawn) [Example 52, 5-{1-Hydroxy-2-[2-(2-ethoxy-4-hydroxymethylphenoxy)ethylamino]ethyl}-2-methylbenzenesulfonamide] | – | 1.1 mg/kg | 0.022 mg/kg | – |
| CCOc1ccccc1OCCNCC(O)c1ccc(C)c(S(N)(=O)=O)c1.Cl (stereo not drawn) [Example 60, 5-{1-Hydroxy-2-[2-(2-ethoxyphenoxy)ethylamino]ethyl}-2-methylbenzenesulfonamide hydrochloride] | -31 ± 2.8 mmHg | – | – | – |
| CCOc1ccccc1OCCNCC(O)c1ccc(OC)c(S(N)(=O)=O)c1.Cl (stereo not drawn) [Example 61, 5-{1-Hydroxy-2-[2-(2-ethoxyphenoxy)ethylamino]ethyl}-2-methoxybenzenesulfonamide hydrochloride] | -54 ± 5.4 mmHg | – | – | – |
| CCOc1ccccc1OCCNCC(O)c1ccc(O)c(S(N)(=O)=O)c1.Cl (stereo not drawn) [Example 62, 2-Hydroxy-5-{1-hydroxy-2-[2-(2-ethoxyphenoxy)ethylamino]-ethyl}benzenesulfonamide hydrochloride] | -47 ± 6.6 mmHg | – | – | – |
| Cc1ccc(C(O)CNCCOc2ccccc2O)cc1S(N)(=O)=O (stereo not drawn) [Example 63, 5-{1-Hydroxy-2-[2-(2-hydroxyphenoxy)ethylamino]ethyl}-2-methylbenzenesulfonamide] | – | 0.27 mg/kg | 0.08 mg/kg | – |
| CC(CCc1ccccc1)NCC(O)c1ccc(N)c(S(N)(=O)=O)c1 (stereo not drawn) [Example 64, 2-Amino-5-[1-hydroxy-2-(1-methyl-3-phenylpropylamino)ethyl]benzenesulfonamide] | – | 0.2 mg/kg | 0.12 mg/kg | – |
| CC(CCc1ccccc1)NCC(O)c1ccc(O)c(C(N)=O)c1 (stereo not drawn) [Labetalol, 5-[1-hydroxy-2-(1-methyl-3-phenyl-propyl)aminoethyl]salicylamide, reference compound] | -10 ± 3.6 mmHg | – | – | ED50 (α-Adrenergic): 1.1 mg/kg |
